Data on 16 molecules can be found in PubChem BioAssay AID248 (DTP/NCI, 2004).

Several values for one entry are separate records, joined by “and”; a condition that tells them apart may be missing. Identical values can stand only once. Toxic doses and inconclusive results are not listed.

For this experiment, the system named is L1210 leukemia ip in BDF1 mice, survival T/C. Kind of experiment: NCI In Vivo Anticancer Drug Screen. Data for tumor model L1210 Leukemia (intraperitoneal) in B6D2F1 (BDF1) mice. Conditions: endpoint: mean survival time, higher = longer survival. The essentials: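 Each compound was tested against a transplantable tumor grown in mice. The endpoint was survival, with treated animals benchmarked against vehicle controls as a simple ratio.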

[1] abbreviates: dose: 100.0 mg/kg/injection, schedule: Q04DX003 (ip), vehicle: Klucel (hydroxypropylcellulose) (HPC).
The mark [2] stands for this setting: dose: 200.0 mg/kg/injection, schedule: Q04DX003 (ip), vehicle: Klucel (hydroxypropylcellulose) (HPC).
[3] abbreviates: dose: 400.0 mg/kg/injection, schedule: Q04DX003 (ip), vehicle: Klucel (hydroxypropylcellulose) (HPC).
[4] abbreviates: dose: 100.0 mg/kg/injection, schedule: Q04DX002 (ip), vehicle: saline.
Setting [5] is: dose: 200.0 mg/kg/injection, schedule: Q04DX002 (ip), vehicle: saline.
Where [6] appears, read: dose: 400.0 mg/kg/injection, schedule: Q04DX002 (ip), vehicle: saline.
[7] abbreviates: dose: 50.0 mg/kg/injection, schedule: Q01DX001 (ip), vehicle: saline.
Where [8] appears, read: dose: 100.0 mg/kg/injection, schedule: Q01DX001 (ip), vehicle: saline.

With `CC1(C)C2CC3CC(C(=O)O)C(C(=O)O)CC3(C2)C1Br` (stereo unspecified), the T/C under setting [1] was 101 % of control, the T/C under setting [2] was 101 % of control and the T/C under setting [3] was 101 % of control.
As to `CCOCCOCCOC(C)Oc1ccc(Br)cc1` (stereo unspecified), the T/C is, setting by setting: under setting [4], 103 % of control; under setting [5], 103 % of control; under setting [6], 100 % of control.
As for `CCN(CC)CCn1ncc2c1C1(C)CCC2C1(C)C` (stereo unspecified), the T/C is 100 % of control (dose: 25.0 mg/kg/injection, schedule: Q01DX009 (ip), vehicle: saline + alcohol); 104 % of control (dose: 50.0 mg/kg/injection, schedule: Q01DX009 (ip), vehicle: saline + alcohol); 102 % of control (dose: 100.0 mg/kg/injection, schedule: Q01DX009 (ip), vehicle: saline + alcohol); 101 % of control (dose: 100.0 mg/kg/injection, schedule: Q04DX003 (ip), vehicle: saline); 102 % of control (dose: 200.0 mg/kg/injection, schedule: Q04DX003 (ip), vehicle: saline).
As for `N=c1c2n[nH]nc2ncn1O`, the T/C is 92 % of control (dose: 75.0 mg/kg/injection, schedule: Q01DX001 (ip), vehicle: other); 110 % of control (dose: 150.0 mg/kg/injection, schedule: Q01DX001 (ip), vehicle: other); 101 % of control (dose: 300.0 mg/kg/injection, schedule: Q01DX001 (ip), vehicle: other).
As to `CN(N=O)C(=O)Nc1c[nH]c(=O)[nH]c1=O`, the T/C is, setting by setting: (dose: 10.0 mg/kg/injection, schedule: Q01DX Z (ip), vehicle: carboxymethylcellulose (CMC)) 172 % of control; (dose: 20.0 mg/kg/injection, schedule: Q01DX Z (ip), vehicle: carboxymethylcellulose (CMC)) 207 % of control; (dose: 27.0 mg/kg/injection, schedule: Q01DX Z (ip), vehicle: saline) 151 % of control; (dose: 40.0 mg/kg/injection, schedule: Q01DX Z (ip), vehicle: carboxymethylcellulose (CMC)) 239 % of control; (dose: 40.5 mg/kg/injection, schedule: Q01DX Z (ip), vehicle: saline) 159 % of control; (dose: 50.0 mg/kg/injection, schedule: Q01DX Z (ip), vehicle: carboxymethylcellulose (CMC)) 165 % of control and 206 % of control. The T/C was 183 % of control (dose: 60.0 mg/kg/injection, schedule: Q01DX Z (ip), vehicle: carboxymethylcellulose (CMC)); 162 % of control (dose: 60.7 mg/kg/injection, schedule: Q01DX Z (ip), vehicle: saline); 101 % of control (dose: 80.0 mg/kg/injection, schedule: Q01DX Z (ip), vehicle: carboxymethylcellulose (CMC)); 98 % of control (dose: 91.1 mg/kg/injection, schedule: Q01DX Z (ip), vehicle: saline); 185 % of control (dose: 240.0 mg/kg/injection, schedule: Q01DX001 (ip), vehicle: saline); 188 % of control (dose: 480.0 mg/kg/injection, schedule: Q01DX001 (ip), vehicle: saline). Besides, the T/C (dose: 960.0 mg/kg/injection, schedule: Q01DX001 (ip), vehicle: saline) is 173 % of control.
For `COc1ccccc1OCC(=O)N1CCCCC1`, the T/C is 101 % of control under setting [4], 107 % of control under setting [5] and 90 % of control under setting [6].
Take `C[N+]1(C)CCOC(O)(c2ccccc2)C1` (stereo unspecified): the T/C was 88 % of control (dose: 25.0 mg/kg/injection, schedule: Q01DX001 (ip), vehicle: saline); 98 % of control under setting [7]; 95 % of control and 101 % of control under setting [8].
`Cc1cc(C(=O)O)c(C)[nH]1`: the T/C runs as follows: (dose: 25.0 mg/kg/injection, schedule: Q04DX003 (ip), vehicle: Klucel (hydroxypropylcellulose) (HPC)) 105 % of control; (dose: 50.0 mg/kg/injection, schedule: Q04DX003 (ip), vehicle: Klucel (hydroxypropylcellulose) (HPC)) 100 % of control; (dose: 75.0 mg/kg/injection, schedule: Q04DX003 (ip), vehicle: Klucel (hydroxypropylcellulose) (HPC)) 101 % of control; under setting [1], 93 % of control; under setting [2], 95 % of control; under setting [3], 101 % of control.
For `O=C1c2ccccc2C(=O)N1Cc1ccc([N+](=O)[O-])cc1`, the T/C (dose: 100.0 mg/kg/injection, schedule: Q01DX001 (ip), vehicle: other) is 96 % of control; the T/C under setting [1] was 103 % of control; the T/C (dose: 200.0 mg/kg/injection, schedule: Q01DX001 (ip), vehicle: other) is 87 % of control; the T/C under setting [2] is 101 % of control; the T/C (dose: 400.0 mg/kg/injection, schedule: Q01DX001 (ip), vehicle: other) was 95 % of control; the T/C under setting [3] was 97 % of control.
`COc1ccc(C(C)(C)CC(C)(C)C)cc1`: the T/C by setting is: (dose: 75.0 mg/kg/injection, schedule: Q01DX009 (ip), vehicle: Klucel (hydroxypropylcellulose) (HPC)) 111 % of control; (dose: 100.0 mg/kg/injection, schedule: Q04DX002 (ip), vehicle: Klucel (hydroxypropylcellulose) (HPC)) 108 % of control; (dose: 150.0 mg/kg/injection, schedule: Q01DX009 (ip), vehicle: Klucel (hydroxypropylcellulose) (HPC)) 100 % of control; (dose: 200.0 mg/kg/injection, schedule: Q04DX002 (ip), vehicle: Klucel (hydroxypropylcellulose) (HPC)) 118 % of control; (dose: 300.0 mg/kg/injection, schedule: Q01DX009 (ip), vehicle: Klucel (hydroxypropylcellulose) (HPC)) 91 % of control; (dose: 400.0 mg/kg/injection, schedule: Q04DX002 (ip), vehicle: Klucel (hydroxypropylcellulose) (HPC)) 101 % of control.
On to `O=C(NCCCN1CCN(CCCNC(=O)c2cccnc2)CC1)c1cccnc1`, for which the T/C (dose: 6.25 mg/kg/injection, schedule: Q01DX009 (ip), vehicle: saline) was 92 % of control; the T/C (dose: 12.5 mg/kg/injection, schedule: Q01DX009 (ip), vehicle: saline) was 93 % of control; the T/C (dose: 25.0 mg/kg/injection, schedule: Q01DX009 (ip), vehicle: saline) was 97 % of control; the T/C (dose: 50.0 mg/kg/injection, schedule: Q01DX009 (ip), vehicle: saline) is 101 % of control; the T/C (dose: 100.0 mg/kg/injection, schedule: Q01DX009 (ip), vehicle: saline) is 109 % of control; the T/C (dose: 150.0 mg/kg/injection, schedule: Q01DX009 (ip), vehicle: saline) was 100 % of control. For the same molecule, under “dose: 225.0 mg/kg/injection, schedule: Q01DX009 (ip), vehicle: saline”, the T/C was 109 % of control.
As to `Cc1nc(Cl)cc(Cl)c1C`, the T/C is 106 % of control (dose: 100.0 mg/kg/injection, schedule: Q04DX003 (ip), vehicle: other); 103 % of control (dose: 178.0 mg/kg/injection, schedule: Q04DX003 (ip), vehicle: other); 104 % of control (dose: 200.0 mg/kg/injection, schedule: Q04DX003 (ip), vehicle: other); 103 % of control (dose: 266.0 mg/kg/injection, schedule: Q04DX003 (ip), vehicle: other); 89 % of control (dose: 400.0 mg/kg/injection, schedule: Q04DX003 (ip), vehicle: other).
Consider `C/C(CCC(=O)O)=N/Nc1nnc(N/N=C(/C)CCC(=O)O)c2ccccc12`, for which the T/C under setting [7] was 102 % of control; the T/C under setting [8] is 102 % of control; the T/C (dose: 200.0 mg/kg/injection, schedule: Q01DX001 (ip), vehicle: saline) is 102 % of control; the T/C (dose: 400.0 mg/kg/injection, schedule: Q01DX001 (ip), vehicle: saline) is 120 % of control.
With `[Cl][Ge]([c]1ccccc1)([c]1ccccc1)[c]1ccccc1`, the T/C is 104 % of control (dose: 100.0 mg/kg/injection, schedule: Q01DX009 (ip), vehicle: Klucel (hydroxypropylcellulose) (HPC)); 102 % of control (dose: 200.0 mg/kg/injection, schedule: Q01DX009 (ip), vehicle: Klucel (hydroxypropylcellulose) (HPC)); 95 % of control (dose: 400.0 mg/kg/injection, schedule: Q01DX009 (ip), vehicle: Klucel (hydroxypropylcellulose) (HPC)).
As to `O=C1COC(=O)c2ccccc2O1`, the T/C is, setting by setting: (dose: 100.0 mg/kg/injection, schedule: Q04DX003 (ip), vehicle: saline with Tween-80) 101 % of control; (dose: 200.0 mg/kg/injection, schedule: Q04DX003 (ip), vehicle: saline with Tween-80) 97 % of control; (dose: 400.0 mg/kg/injection, schedule: Q04DX003 (ip), vehicle: saline with Tween-80) 93 % of control.
In the case of `OC(c1ccccc1)C1(O)CC2CCC1C2` (stereo unspecified), the T/C reads like this: (dose: 6.25 mg/kg/injection, schedule: Q01DX001 (ip), vehicle: saline) 96 % of control; (dose: 125.0 mg/kg/injection, schedule: Q01DX001 (ip), vehicle: saline) 100 % of control; (dose: 250.0 mg/kg/injection, schedule: Q01DX001 (ip), vehicle: saline) 98 % of control.
